Patent US20170107207A1, “AMINOPYRAZOLONE DERIVATIVE” (DAIICHI SANKYO COMPANY, LIMITED, priority 2014, published 2017)

What was measured:
[1] = target: T1, TIP48/TIP49 complex (Homo sapiens, UniProt Q9Y230+Q9Y265); test: ATPase assay of TIP48/TIP49 complex (ADP-Glo); type: biochemical; conditions: concentration at which the ATPase activity was inhibited by 50%
T1 construct: made in house; host or cells: E. coli
From the text: The ATPase activity of the TIP48/TIP49 complex can be measured by use of an ATPase assay described below in Test Examples 1 and 2. The ATPase activity of the TIP48/TIP49 complex can be measured, as described below in the Test Examples, for example, by using recombinant human TIP48 and TIP49 proteins (hereinafter, referred to as rTIP48 and rTIP49) and ATP in the presence or absence of a test compound and measuring the amount of ADP formed through hydrolysis by the ATPase activity of the TIP48/TIP49 complex, using ADP-Glo. Alternatively, the ATPase activity of the TIP48/TIP49 complex can be measured by a method described in, for example, J. Mol. Biol. 366, 172-179 (2007).
An ATPase assay of a TIP48/TIP49 complex was conducted using rTIP48 and rTIP49. Human TIP48 and TIP49 DNAs were purchased from Open Biosystems. Human TIP48 and TIP49 cDNAs cloned by PCR using the purchased DNAs were each integrated into plasmids for expression in E. coli and expressed in E. coli to obtain rTIP48 and rTIP49.
A test compound was dissolved at 10 mM using DMSO. The solution was diluted to 10 concentrations as 4-fold serial dilutions from 10 mM using DMSO.
A 2×assay buffer (100 mM Tris-HCl, pH 7.5, 100 mM NaCl, 40 mM MgCl2, 2 mM DTT, 20 μM ATP, and 0.2 mg/mL BSA) was dispensed at 24.5 μL/well to a 384-well assay plate.
Test compound solutions were dispensed thereto at 1 μL/well. Subsequently, the solution in each well was mixed using a plate mixer.
rTIP48 and rTIP49 were diluted to a concentration of 50 μg/mL using sterilized water. The diluted solution was dispensed at 24.5 μL/well to the 384-well assay plate. Subsequently, the solution in each well was mixed using a plate mixer (final concentration: 24.5 μg/mL) (concentration of each test compound solution: 200 μM, 50 μM, 12.5 μM, 3.12 μM, 0.78 μM, 0.20 μM, 0.049 μM, 0.012 μM, 0.003 μM, and 0.0007 μM; DMSO concentration: 2%).
After the mixing using the plate mixer, the assay plate was left standing at room temperature for 1.5 hours.
5 μL of the solution in each well was transferred to a white assay plate, and ADP-Glo Reagent from ADP-Glo Kinase Assay (Promega Corp., catalog No. V9101) was dispensed thereto at 5 μL/well. After completion of the reaction, the plate was left standing at room temperature for 40 minutes. Kinase Detection Reagent was further dispensed thereto at 5 μL/well, and the plate was left standing at room temperature for 30 minutes. Then, luminescence intensity was measured using a plate reader.
The ATPase inhibitory activity was calculated according to the expression given below.
The luminescence intensity of a well supplemented with the test compound and the TIP48/TIP49 complex was defined as A. The luminescence intensity of a well supplemented with only the TIP48/TIP49 complex was defined as B. The luminescence intensity of a well supplemented with neither the test compound nor the TIP48/TIP49 complex was defined as C. The ratio between the test compound-supplemented group and the test compound-nonsupplemented group (T/C value) was determined according to the following calculation expression:
The dose-response curve was calculated using GraphPad Prism 4 from the concentration of each of the serially diluted test compounds and the ATPase inhibitory activity (%) at this concentration.

[2] = system: human lymphoma cell line RAMOS cells; test: Cell growth inhibition test using RAMOS cell, ATP assay (CellTiter-Glo); type: cell-based; conditions: Homo sapiens, Ramos, 72 h, cultured 3 days, 50% growth inhibition concentration
Protocol: A cell growth inhibition test was carried out by treating human lymphoma cell line RAMOS cells with a test compound for a given period and then counting the number of viable cells by MTT assay or CellTiter-Glo Luminescent Cell Viability Assay (manufactured by Promega Corp.; hereinafter, referred to as ATP assay).
RAMOS cells were inoculated at 4000 cells/40 μL/well to a 384-well plate containing the compound prepared in advance at predetermined concentrations. The cells thus inoculated were cultured at 37° C. for 3 days under 5% CO2. In order to measure a cell survival rate, CellTiter-Glo Reagent was added in an amount corresponding to 1/4 of the amount of the culture solution at the day of cell inoculation and at the final culture date and stirred at room temperature for 2 minutes. Then, luminescence intensity was measured using a plate reader. The cell survival rate was calculated according to the expression given below.
The number of viable cells and luminescence intensity have been confirmed to correlate with each other. Therefore, the rate of cell growth was calculated according to the following expression: Rate of cell growth (T/C %) of a test compound-supplemented well=100×[(B−C)/(A−C)] wherein A represents the luminescence intensity (final culture date) of a test compound-free well; B represents the luminescence intensity (final culture date) of a test compound-containing well; and C represents the luminescence intensity (day of cell inoculation) of a well at the start of contact of the cells with the test compound.
T/C % at each concentration of the test compound was determined. The concentration at which the test compound offered 50% growth rate was calculated as a GI50 value from the growth rates at two points interpolating 50% and the concentrations, and is shown in Table 56.

T1 sequence (Q9Y230 whole entry): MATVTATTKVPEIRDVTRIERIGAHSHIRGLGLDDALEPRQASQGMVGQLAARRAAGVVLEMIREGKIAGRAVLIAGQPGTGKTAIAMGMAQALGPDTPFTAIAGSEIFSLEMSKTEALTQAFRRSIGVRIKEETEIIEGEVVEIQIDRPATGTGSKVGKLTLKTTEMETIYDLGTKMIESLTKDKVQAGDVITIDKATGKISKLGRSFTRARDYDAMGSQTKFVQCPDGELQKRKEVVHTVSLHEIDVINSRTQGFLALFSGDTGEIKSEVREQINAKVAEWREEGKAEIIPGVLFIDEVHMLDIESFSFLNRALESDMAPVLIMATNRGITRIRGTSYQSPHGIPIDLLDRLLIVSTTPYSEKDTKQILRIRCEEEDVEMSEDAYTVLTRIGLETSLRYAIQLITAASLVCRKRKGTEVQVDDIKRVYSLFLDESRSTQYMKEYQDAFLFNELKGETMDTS
T1 sequence (Q9Y265 whole entry): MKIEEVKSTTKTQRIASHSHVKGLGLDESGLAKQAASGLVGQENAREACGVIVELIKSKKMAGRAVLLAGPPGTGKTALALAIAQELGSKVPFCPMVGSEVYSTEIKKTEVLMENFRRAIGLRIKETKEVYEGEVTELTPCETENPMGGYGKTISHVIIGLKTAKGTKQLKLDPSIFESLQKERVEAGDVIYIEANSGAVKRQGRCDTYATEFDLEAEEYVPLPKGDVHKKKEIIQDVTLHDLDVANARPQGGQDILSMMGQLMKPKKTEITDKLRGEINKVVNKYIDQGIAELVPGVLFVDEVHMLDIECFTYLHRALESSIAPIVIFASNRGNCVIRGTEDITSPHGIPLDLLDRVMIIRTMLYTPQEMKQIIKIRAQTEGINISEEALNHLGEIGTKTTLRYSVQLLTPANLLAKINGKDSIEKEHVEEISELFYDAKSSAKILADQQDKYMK

SMILES | IC50 [1] | GI50 [2]
CCOc1cc(F)c(Cl)cc1C(=O)NCC(C)(C)CC(=O)Nc1c(CCNC)n(C)n(-c2ccccc2)c1=O [Example 34, 5-Chloro-N-[2,2-dimethyl-4-({1-methyl-5-[2-(methylamino)ethyl]-3-oxo-2-phenyl-2,3-dihydro-1H-pyrazol-4-yl}amino)-4-oxobutyl]-2-ethoxy-4-fluorobenzamide] | 56 nM | 470 nM
CCOc1cc(F)c(Cl)cc1C(=O)NCC(C)(C)CC(=O)Nc1c(CCN(C)C)n(CC)n(-c2ccccc2)c1=O [Example 41, 5-Chloro-N-[4-({5-[2-(dimethylamino)ethyl]-1-ethyl-3-oxo-2-phenyl-2,3-dihydro-1H-pyrazol-4-yl}amino)-2,2-dimethyl-4-oxobutyl]-2-ethoxy-4-fluorobenzamide] | 20 nM | 98 nM
CCOc1ncc(Cl)cc1C(=O)NCC(C)(C)CC(=O)Nc1c(CCN(C)C)n(CC)n(-c2ccccc2)c1=O [Example 42, 5-Chloro-N-[4-({5-[2-(dimethylamino)ethyl]-1-ethyl-3-oxo-2-phenyl-2,3-dihydro-1H-pyrazol-4-yl}amino)-2,2-dimethyl-4-oxobutyl]-2-ethoxypyridine-3-carboxamide] | 80 nM | 150 nM
[2H]C([2H])([2H])n1c(CCN(C)C)c(NC(=O)CC(C)(C)CNC(=O)c2cc(Br)cnc2OCC)c(=O)n1-c1ccccc1 [Example 44, 5-Bromo-N-[4-({3-[2-(dimethylamino)ethyl]-5-oxo-1-phenyl-2-(trideuteriomethyl)-2,3-dihydro-1H-pyrazol-4-yl}amino)-2,2-dimethyl-4-oxobutyl]-2-ethoxypyridine-3-carboxamide] | 150 nM | 470 nM
Cc1cc2cc(Cl)cc(C(=O)NCC(C)(C)CC(=O)Nc3c(CCN(C)C)n(C)n(-c4ccccc4F)c3=O)c2o1 [Example 46, 5-Chloro-N-[4-({3-[2-(dimethylamino)ethyl]-1-(2-fluorophenyl)-2-methyl-5-oxo-1,5-dihydro-1H-pyrazol-4-yl}amino)-2,2-dimethyl-4-oxobutyl]-2-methylbenzofuran-7-carboxamide] | 81 nM | 470 nM
CCOc1ccc(Cl)cc1C(=O)NCC(C)(C)CC(=O)Nc1c(CCN(C)C)n(C)n(-c2cccc(Cl)n2)c1=O [Example 47, 5-Chloro-N-(4-{[1-(6-chloro-2-pyridyl)-3-(2-dimethylamino)ethyl]-2-methyl-5-oxopyrazol-4-yl}amino-2,2-dimethyl-4-oxobutyl)-2-ethoxybenzamide] | 37 nM | 250 nM
CCOc1cc(F)c(Cl)cc1C(=O)NCC(C)(C)CC(=O)Nc1c(C[C@@H](C)N(C)C)n(C)n(-c2ccccc2)c1=O [Example 49, 5-Chloro-N-[4-({5-[(2R)-2-(dimethylamino)propyl]-1-methyl-3-oxo-2-phenyl-2,3-dihydro-1H-pyrazol-4-yl}amino)-2,2-dimethyl-4-oxobutyl]-2-ethoxy-4-fluorobenzamide] | 69 nM | 160 nM
Cc1cc2cc(Cl)cc(C(=O)NCC(C)(C)CC(=O)Nc3c(C[C@@H](C)N(C)C)n(C)n(-c4ccccc4)c3=O)c2o1 [Example 50, 5-Chloro-N-[4-({5-[(2R)-2-(dimethylamino)propyl]-1-methyl-3-oxo-2-phenyl-2,3-dihydro-1H-pyrazol-4-yl}amino)-2,2-dimethyl-4-oxobutyl]-2-methylbenzofuran-7-carboxamide] | 50 nM | 210 nM
CCOc1cc(F)c(Cl)cc1C(=O)NCC(C)(C)CC(=O)Nc1c(C[C@H](C)N(C)C)n(C)n(-c2ccccc2)c1=O [Example 52, 5-Chloro-N-[4-({5-[(2S)-2-(dimethylamino)propyl]-1-methyl-3-oxo-2-phenyl-2,3-dihydro-1H-pyrazol-4-yl}amino)-2,2-dimethyl-4-oxobutyl]-2-ethoxy-4-fluorobenzamide] | 36 nM | 120 nM

Second part, the molecule after the results:

IC50 [1] | GI50 [2] | SMILES
24 nM | 120 nM | CCOc1ccc(Cl)cc1C(=O)NCC(C)(C)CC(=O)Nc1c(CCN(C)CCF)n(C)n(-c2ccccc2)c1=O [Example 36, 5-Chloro-2-ethoxy-N-{4-[(5-{2-[2-fluoroethyl(methyl)amino]ethyl}-1-methyl-3-oxo-2-phenyl-2,3-dihydro-1H-pyrazol-4-yl)amino]-2,2-dimethyl-4-oxobutyl}benzamide]
38 nM | 120 nM | CCOc1cc(F)c(Cl)cc1C(=O)NCC(C)(C)CC(=O)Nc1c(CCN(C)CCF)n(C)n(-c2ccccc2)c1=O [Example 37, 5-Chloro-2-ethoxy-4-fluoro-N-{4-[(5-{2-[2-fluoroethyl(methyl)amino]ethyl}-1-methyl-3-oxo-2-phenyl-2,3-dihydro-1H-pyrazol-4-yl)amino]-2,2-dimethyl-4-oxobutyl}benzamide]
77 nM | 210 nM | CCOc1cc(F)c(Cl)cc1C(=O)NCC(C)(C)CC(=O)Nc1c(CCN(C)CC(F)(F)F)n(C)n(-c2ccccc2)c1=O [Example 38, 5-Chloro-N-{2,2-dimethyl-4-[(1-methyl-5-{2-[methyl(2,2,2-trifluoroethyl)amino]ethyl}-3-oxo-2-phenyl-2,3-dihydro-1H-pyrazol-4-yl)amino]-4-oxobutyl}-2-ethoxy-4-fluorobenzamide]
60 nM | 190 nM | [2H]C([2H])([2H])n1c(CCN(C)C)c(NC(=O)CC(C)(C)CNC(=O)c2cc(Cl)ccc2OCC)c(=O)n1-c1ccccc1 [Example 43, 5-Chloro-N-[4-({3-[2-(dimethylamino)ethyl]-5-oxo-1-phenyl-2-(trideuteriomethyl)pyrazol-4-yl}amino)-2,2-dimethyl-4-oxobutyl]-2-ethoxybenzamide]
77 nM | 480 nM | CCOc1ccc(Cl)cc1C(=O)NCC(C)(C)CC(=O)Nc1c(CCN(C)C)n(C)n(-c2ccccc2F)c1=O [Example 45, 5-Chloro-N-[4-({3-[2-(dimethylamino)ethyl]-1-(2-fluorophenyl)-2-methyl-5-oxopyrazol-4-yl}amino)-2,2-dimethyl-4-oxobutyl]-2-ethoxybenzamide]
61 nM | 160 nM | CCOc1ccc(Cl)cc1C(=O)NCC(C)(C)CC(=O)Nc1c(C[C@@H](C)N(C)C)n(C)n(-c2ccccc2)c1=O [Example 48, 5-Chloro-N-[4-({5-[(2R)-2-(dimethylamino)propyl]-1-methyl-3-oxo-2-phenyl-2,3-dihydro-1H-pyrazol-4-yl}amino)-2,2-dimethyl-4-oxobutyl]-2-ethoxybenzamide]
71 nM | 140 nM | CCOc1ccc(Cl)cc1C(=O)NCC(C)(C)CC(=O)Nc1c(C[C@H](C)N(C)C)n(C)n(-c2ccccc2)c1=O [Example 51, 5-Chloro-N-[4-({5-[(2S)-2-(dimethylamino)propyl]-1-methyl-3-oxo-2-phenyl-2,3-dihydro-1H-pyrazol-4-yl}amino)-2,2-dimethyl-4-oxobutyl]-2-ethoxybenzamide]
